How the values were obtained:
VEGF gene expression = VEGF gene expression in THP-1 cells differentiated to macrophages; assay type: cell-based; conditions: Homo sapiens, LPS 10 ng/ml + PGE2 10 nM, read-out: IC50 transcription of VEGF
Description: The human monocyte cell line THP-1 was obtained from the ATCC and was grown according to the instructions provided. THP-1 monocytic cells were differentiated to macrophages with 100 nM phorbol 12-myristate 13-acetate (PMA) for 4 days. Macrophages were then stimulated with lipopolysaccharide (LPS) 10 ng/ml and PGE2 10 nM for 3 or 24 h. Total RNA was purified using the ABI Prism 6100 Nucleic Acid PrepStation (Applied Biosystems, Foster City, CA, USA) and retrotranscribed using the High-Capacity cDNA Reverse Transcription Kit (Thermo Fisher Scientific). RT-PCR analysis was performed using the Applied Biosystems 7500 Fast Real-Time PCR System using specific TaqMan assays (number Hs00174131_m1 for IL-6, number Hs00900054_m1 for vascular endothelial growth factor A [VEGFA]; Thermo Fisher Scientific) and, as an endogenous control, the 18S Pre-Developed TaqMan® Assay (Thermo Fisher Scientific). The data analysis, with normalisation on 18S amplified values, was done following Thermo Fisher Scientific’s specific instructions for gene expression relative quantification. All individual data are the result of at least three different analyses for each sample.

5-HT1B = 5-HT1B (Rattus norvegicus, UniProt P28564); assay: Serotonin receptor 5-HT1B binding; conditions: [^125I]CYP (+30µM isoproterenol), Rat cerebral cortex, read-out: CR6086 Activity at 10µM
5-HT1B, sequence (P28564 whole entry): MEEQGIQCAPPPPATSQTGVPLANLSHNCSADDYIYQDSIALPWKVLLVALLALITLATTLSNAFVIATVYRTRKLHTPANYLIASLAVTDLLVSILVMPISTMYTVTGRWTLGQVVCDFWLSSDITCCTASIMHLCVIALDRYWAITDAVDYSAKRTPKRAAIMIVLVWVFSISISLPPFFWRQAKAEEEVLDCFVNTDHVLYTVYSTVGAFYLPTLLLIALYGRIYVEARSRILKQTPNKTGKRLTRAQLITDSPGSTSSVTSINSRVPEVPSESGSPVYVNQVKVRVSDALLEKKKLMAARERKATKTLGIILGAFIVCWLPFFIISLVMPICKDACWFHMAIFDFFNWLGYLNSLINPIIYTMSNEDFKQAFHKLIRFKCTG

`O=C([O-])c1ccc(C2(NC(=O)[C@H]3CC4(CCN3Cc3ccc(C(F)(F)F)cc3)CC4)CC2)cc1.[Na+]` [CR6086, Sodium (R)-4-(1-(6-(4-(trifluoromethyl)benzyl)-6-azaspiro[2.5]octane-5-carboxamido)cyclopropyl)benzoate] showed an IC50 (VEGF gene expression) of 25 nM and an inhibition at 10 µM (5-HT1B) of less than 20%.

— publication PMC5831858, “Pharmacological characterisation of CR6086, a potent prostaglandin E2 receptor 4 antagonist, as a new potential disease-modifying anti-rheumatic drug” (Arthritis Research & Therapy, 2018)
